Test: Pupil diameter after instillation of pilocarpine 1% before vs after TBUT (digital imaging system)
Assay type: in vivo
Details: 30 μL; for mean decrease from the baseline in pupil diameter: at 30 minutes, 6 normal eyes
Experimental: The following study examines the efficacy of pilocarpine, 1% in constricting the pupil and tropicamide, 1% in dilating the pupil when instilled before and after TBUT. Baseline pupil diameters were determined in 12 normal eyes using a digital imaging system (and controlling illumination). Six (6) of the eyes were dosed with 30 μL of pilocarpine and 6 with 30 μL of tropicamide, all before TBUT. Pupil diameter was measured every minute for 30 minutes after instillation. One day later, the same procedures were repeated in the same eyes, except that the subjects were instructed to stare without blinking (≧6 seconds) before the ophthalmic agents were instilled.

CC[C@@H]1C(=O)OC[C@@H]1Cc1cncn1C [Pilocarpine, pilocarpine]
mean decrease from the baseline in pupil diameter (instillation after TBUT): 2.44 units | mean decrease from the baseline in pupil diameter (instillation before TBUT): 1.12 units | greater pupil constriction with instillation after TBUT vs before TBUT (over the 30 minute period): 29.44%

From patent US6465506B2, “Instillation techniques for ophthalmic agents to enhance treatment effect” (Ophthalmic Research Associates, Inc., priority 2001, dated 2002)
